Source: the supplement of paper PMC10627819

Tests used:
S. pneumoniae D39V = assay: Bliss interaction score (quartile over a dose matrix) (fitness difference); higher = more antagonism (negative = synergy)
Summary of the method: (§1)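 Each OD595 reading at entry into stationary phase was scaled to the robust mean of the untreated wells on its plate, with a ceiling of 1. These ratios define fitness, and single-drug fitness was inferred from combinations. The Bliss score compares observed fitness with the product-based expectation and is reported as quartiles across all replicate types, technical, biological and donor/recipient.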

S. aureus DSM 20231 [1] = assay: as above
Summary of the method: as §1

S. aureus Newman = assay: as above
Summary of the method: as §1

B. subtilis 168 [2] = assay: as above
Summary of the method: as §1

S. aureus DSM 20231 [3] = assay: fitness (endpoint OD595 vs no drug) (fraction); higher = more growth
Summary of the method: (§2)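 Background-subtracted growth curves were the basis for fitness, taken as the optical density at entry into stationary phase over the robust mean of no-drug control wells. A cap of 1 was applied. The curves came from OD595 readings every 30 min for 14 h at 37 °C, in 384-well plates seeded at OD595 0.01 with 30 µl, or 55 µl for S. pneumoniae.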

B. subtilis 168 [4] = assay: as above
Summary of the method: as §2
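Throughout, for Bliss interaction score (quartile over a dose matrix): first quartile when negative (synergy) and third quartile when positive (antagonism).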

COc1cccc2c1C(=O)c1c(O)c3c(c(O)c1C2=O)C[C@@](O)(C(=O)CO)C[C@@H]3O[C@H]1C[C@H](N)[C@H](O)[C@H](C)O1 [Doxorubicin] + COc1cc(Cc2cnc(N)nc2N)cc(OC)c1OC [Trimethoprim]
Conditions | Bliss interaction score
B. subtilis 168 [2] | -0.0392
S. aureus DSM 20231 [1] | -0.0539
S. aureus Newman | 0.0879
S. pneumoniae D39V | -0.179

fitness
Conditions | partner 0.125 µg/mL | partner 0.25 µg/mL | partner 0.5 µg/mL | partner 1 µg/mL
B. subtilis 168 [4], first compound 0.625 µg/mL | 0.628 | 0.489 | 0.435 | –
B. subtilis 168 [4], first compound 1.25 µg/mL | 0.582 | – | 0.421 | –
B. subtilis 168 [4], first compound 2.5 µg/mL | 0.469 | 0.393 | 0.37 | –
S. aureus DSM 20231 [3], first compound 0.625 µg/mL | 0.683 | 0.557 | 0.175 | 0.0314
S. aureus DSM 20231 [3], first compound 1.25 µg/mL | 0.742 | 0.56 | 0.0868 | 0.0177
S. aureus DSM 20231 [3], first compound 2.5 µg/mL | 0.728 | 0.523 | 0.0302 | 0.0244

fitness, B. subtilis 168 [4], one replicate
Conditions | partner 0.1 µg/mL | partner 0.2 µg/mL | partner 0.4 µg/mL | partner 1 µg/mL | partner 2 µg/mL
first compound 0.625 µg/mL | 0.868 | 0.699 | 0.524 | 0.278 | 0.222
first compound 1.25 µg/mL | 0.849 | 0.646 | 0.504 | 0.228 | 0.152
first compound 2.5 µg/mL | 0.799 | 0.559 | 0.391 | 0.126 | 0.0762

COc1ccc(C[C@H](N)C(=O)N[C@H]2[C@@H](O)[C@H](n3cnc4c(N(C)C)ncnc43)O[C@@H]2CO)cc1 [Puromycin] + COc1cc(Cc2cnc(N)nc2N)cc(OC)c1OC [Trimethoprim]
Conditions | Bliss interaction score
B. subtilis 168 [2] | 0.0908
S. aureus DSM 20231 [1] | 0.113
S. aureus Newman | 0.0927
S. pneumoniae D39V | -0.203

fitness, one replicate
Conditions | first compound 0.39 µg/mL | first compound 0.78 µg/mL | first compound 1.56 µg/mL | first compound 3.12 µg/mL | first compound 6.24 µg/mL
B. subtilis 168 [4], partner 0.1 µg/mL | 0.818 | 0.875 | 0.962 | – | –
B. subtilis 168 [4], partner 0.125 µg/mL | 0.756 | 0.748 | 0.77 | – | –
B. subtilis 168 [4], partner 0.2 µg/mL | 0.814 | 0.85 | 0.831 | – | –
B. subtilis 168 [4], partner 0.4 µg/mL | 0.562 | 0.581 | 0.575 | – | –
B. subtilis 168 [4], partner 1 µg/mL | 0.332 | 0.342 | 0.365 | – | –
B. subtilis 168 [4], partner 2 µg/mL | 0.326 | 0.29 | 0.235 | – | –
S. aureus DSM 20231 [3], partner 0.125 µg/mL | 0.804 | 0.921 | – | 0.908 | 0.596
S. aureus DSM 20231 [3], partner 0.25 µg/mL | – | – | – | 0.812 | 0.631
S. aureus DSM 20231 [3], partner 0.5 µg/mL | – | – | – | 0.48 | 0.613

fitness
Conditions | first compound 0.39 µg/mL | first compound 0.78 µg/mL | first compound 1.56 µg/mL
B. subtilis 168 [4], partner 0.25 µg/mL | 0.695 | 0.738 | 0.71
B. subtilis 168 [4], partner 0.5 µg/mL | 0.492 | 0.481 | 0.514
S. aureus DSM 20231 [3], partner 0.125 µg/mL | – | – | 0.876
S. aureus DSM 20231 [3], partner 0.25 µg/mL | 0.605 | 0.639 | 0.682
S. aureus DSM 20231 [3], partner 0.5 µg/mL | 0.164 | – | 0.222
S. aureus DSM 20231 [3], partner 1 µg/mL | 0.0431 | 0.0497 | 0.0562
